Test results published in publication PMC8945778, “Functional Characterization of Serotonin N-Acetyltransferase in Archaeon Thermoplasma volcanium” (Antioxidants, 2022).

Molecular target: T1, TvSNAT (Thermoplasma volcanium, UniProt Q97CT7)
T1 construct: gene TVG0012647
Experiment: HPLC of N-acetylserotonin, dose-dependent inhibition of serotonin acetylation
Assay type: biochemical
Details: serotonin 0.5 mM; acetyl-CoA 0.5 mM; pH 8.8; 45 °C; suggested alternative substrate; 50% point read by authors, no fit; read-out: SNAT activity decreased to 50%

T1 sequence (Q97CT7 entry or part of it): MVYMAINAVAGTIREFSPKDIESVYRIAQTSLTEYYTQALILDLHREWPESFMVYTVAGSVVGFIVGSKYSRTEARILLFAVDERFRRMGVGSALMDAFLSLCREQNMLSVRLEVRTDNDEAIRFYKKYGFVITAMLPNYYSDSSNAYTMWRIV

| SMILES | IC50 [µM] |
| --- | --- |
| NC[C@H](O)c1ccc(O)cc1 [octopamine] | ~500 |
| NCCCCNCCCN [spermidine] | ~100 |
